Molecules are shown by their SMILES.

A short description of this series: in vitro. The note with it: human, hela cells, % viability.
What is called viability is a read-out of living cells in per cent, often relative to untreated cells. As to `Cc1nc2cccnc2n1CCNC(=O)c1cccc(Cl)c1` [CBK283593], the viability at 28.5 h, 10 µM was 97.9%.
Turning to `Cc1ccc2nc3c(cc2c1)CN(Cc1ccco1)C(=O)CO3` [CBK283594], the viability at 28.5 h, 10 µM turned out to be 103%.
With `O=C(NC1(c2ccc(F)cc2)CCCC1)c1cnccn1` [CBK283595], the viability at 28.5 h, 10 µM came out at 85.1%.
As to `CCOc1ccc(CC(=O)N2CCC(c3ccncc3)CC2)cc1` [CBK283596], the viability at 28.5 h, 10 µM was 87.8%.
The same measure for `O=C1CC2(CCN(C(=O)N3CCCC3)CC2)Oc2ccc(F)cc21` [CBK283597]: 84.9%.
Consider `COc1ccccc1[C@@H]1C[C@H](OC(=O)c2ccc(F)cc2)C(=O)N1C` [CBK283598], for which the viability at 28.5 h, 10 µM is 92%.
As for `Cc1ccc2c(c1)C(=O)CC1(CCN(C(=O)OC(C)(C)C)CC1)O2` [CBK283599], the figure is 98%; as for `COc1cccc(C2(NC(=O)CCn3nccc3C)CCCC2)c1` [CBK283601], 101%; as for `CN1CC=C(/C=C/c2c[nH]c3ccccc23)CC1` [CBK283602], 89.4%.
As for `O=C(CCC1CCCC1)N1CCC(O)(c2cccnc2)CC1` [CBK283603], the figure is 101%; as for `Cc1csc(NC(=O)CN2CC=C(c3ccc(C)o3)CC2)n1` [CBK283606], 96.5%.
In the case of `Cc1cc(NC(=O)CN2CC=C(c3ccc(C)o3)CC2)no1` [CBK283608], the viability at 28.5 h, 10 µM amounted to 106%.
On to `CC(=O)NC1(c2ccc(F)cc2)CCN(Cc2cccnc2)CC1` [CBK283610], for which the viability at 28.5 h, 10 µM came out at 103%.
`O=C(NC1(c2ccc(F)cc2)CCCC1)c1cnn2cccnc12` [CBK283612]: the viability at 28.5 h, 10 µM came out at 97.4%.
The same measure for `Cc1nonc1CC(=O)NC1(c2ccc(F)cc2)CCCC1` [CBK283613]: 93.2%.
`Cc1nn(C)cc1C(=O)O[C@H]1C[C@@H](c2ccc(F)cc2)N(C)C1=O` [CBK283615]: the viability at 28.5 h, 10 µM is 103%.
For the compound `Cc1cccnc1C1(O)CCN(C(=O)Cc2ccccc2F)CC1` [CBK283617], the viability at 28.5 h, 10 µM was determined as 97.8%.
The same measure for `O=C(NC1(c2cccc(F)c2)CCCC1)c1cnccn1` [CBK283619]: 93%; for `Cc1nn(CC(=O)N2CCCC2)c(=O)c2cc3occc3n12` [CBK283621]: 84.5%; for `Cc1nn(CC(=O)N2CCCCC2C)c(=O)c2cc3occc3n12` (centres unmarked) [CBK283622]: 76.7%.
Turning to `Cc1nn(CC(=O)N2CCCC(C)C2)c(=O)c2cc3occc3n12` (centres unmarked) [CBK283623], the viability at 28.5 h, 10 µM turned out to be 91.6%.
As for `Cc1nn(CC(=O)N2CCCCCC2)c(=O)c2cc3occc3n12` [CBK283624], the figure is 96.5%; as for `O=C1CC2(CCN(C(=O)C3CCCC3)CC2)Oc2ccc(Cl)cc21` [CBK283625], 90.9%; as for `COc1ccccc1C1(NC(=O)CCn2cccn2)CCCC1` [CBK283626], 103%.
As to `COc1ccccc1C1(NC(=O)CCn2nccc2C)CCCC1` [CBK283628], the viability at 28.5 h, 10 µM was found to be 89.7%.
As to `Cc1ccc(C2=CCN(CC(=O)NCc3ccco3)CC2)o1` [CBK283632], the viability at 28.5 h, 10 µM worked out at 107%.
Consider `Cc1ccc(C2=CCN(CC(=O)Nc3ccccn3)CC2)o1` [CBK283634], for which the viability at 28.5 h, 10 µM came to 98.7%.
As for `Cc1nc2cccnc2n1C1CCN(C(=O)NC2CCCCC2)CC1` [CBK283637], the figure is 88.5%; as for `CCc1nc2cccnc2n1CCNC(=O)Cc1cccs1` [CBK283639], 98.9%.
On to `O=C(CN1CCC(c2ccc(F)cc2)CC1)N1CCCCC1` [CBK283640], for which the viability at 28.5 h, 10 µM was 101%.
As for `Cc1cc(O)n2nc(C)c(-c3ccc(F)cc3)c2n1` [CBK283642], the viability at 28.5 h, 10 µM stood at 89.3%.
Regarding `COc1ccccc1C1(NC(=O)c2c(C)noc2C)CCCC1` [CBK283644], the viability at 28.5 h, 10 µM came out at 95%.
As for `Cc1ccc(C)n1-c1cccc(C(=O)N2CCn3cnnc3C2)c1` [CBK283646], the viability at 28.5 h, 10 µM turned out to be 96.2%.
Turning to `Cn1ccnc1C1(O)CCN(C(=O)CC2CCCCC2)CC1` [CBK283647], the viability at 28.5 h, 10 µM came to 97.2%.
Take `COc1cccc(C2(NC(=O)Cn3nc(C)cc3C)CCCC2)c1` [CBK283648]: the viability at 28.5 h, 10 µM turned out to be 98.1%.
For `CN1C(=O)[C@@H](OC(=O)c2cccnc2)C[C@H]1c1ccc(F)cc1` [CBK283649], the viability at 28.5 h, 10 µM was 104%.
Turning to `O=C(c1cc[nH]n1)N1CCC2(CC1)Nc1ccccc1-n1cccc12` [CBK283652], the viability at 28.5 h, 10 µM worked out at 96.1%.
The same measure for `Cc1nn(CC(=O)N2CCC(C)CC2)c(=O)c2cc3occc3n12` [CBK283654]: 89.8%.
As for `Cc1nn(CC(=O)N(C(C)C)C(C)C)c(=O)c2cc3occc3n12` [CBK283655], the viability at 28.5 h, 10 µM is 98.4%.
For `CCc1nn(CC(=O)N2CCCC(C)C2)c(=O)c2cc3occc3n12` (centres unmarked) [CBK283657], the viability at 28.5 h, 10 µM is 79.3%.
As for `COc1cccc(CC(=O)N2CCCC2c2nc3ccccc3[nH]2)c1` (centres unmarked) [CBK283665], the figure is 99.8%; as for `COc1ccc(CC(=O)N2CCCC2c2nc3ccccc3[nH]2)cc1` (centres unmarked) [CBK283666], 93.4%.
The same measure for `COc1ccc(CCC2CCN(C)CC2)c(O)c1` [CBK283668]: 104%.
The same measure for `O=C(c1ccc(F)cc1)N1CCC(O)(c2ccccn2)CC1` [CBK283669]: 92.9%; for `CC1CCCCC1NC(=O)Cn1ncc2cccn2c1=O` (centres unmarked) [CBK283673]: 98.7%.
In the case of `CCc1nn(CC(=O)N2CCCCC2)c(=O)c2cc3occc3n12` [CBK283674], the viability at 28.5 h, 10 µM turned out to be 77%.
On to `CCc1nn(CC(=O)N2CCCCCC2)c(=O)c2cc3occc3n12` [CBK283677], for which the viability at 28.5 h, 10 µM was 86.9%.
For the compound `Cc1cccnc1C1(O)CCN(C(=O)Cc2ccccc2Cl)CC1` [CBK283682], the viability at 28.5 h, 10 µM was determined as 98.7%.
For the compound `O=C(c1ccc2ncccc2c1)N1CCC(c2ccncc2)CC1` [CBK283684], the viability at 28.5 h, 10 µM turned out to be 90.3%.
For the compound `c1csc(CNc2c(-c3cccs3)nc3cnccn23)c1` [CBK283685], the viability at 28.5 h, 10 µM amounted to 92.7%.
Consider `O=C(Cc1ccc(F)cc1)N1CCn2c(nnc2C2CC2)C1` [CBK283688], for which the viability at 28.5 h, 10 µM was determined as 113%.
The same measure for `O=C(CCCc1c[nH]c2ccccc12)N1CCn2c(nnc2C2CC2)C1` [CBK283689]: 96.6%; for `Cc1ccnn1CCC(=O)NC1(c2ccccc2F)CCCC1` [CBK283691]: 81.7%.
As to `CC1CCN(C(=O)Cn2c(=O)n(C(C)C)c3ncccc32)CC1` [CBK283698], the viability at 28.5 h, 10 µM is 89.5%.
Regarding `CC(C)n1c(=O)n(CC(=O)NCCc2ccccc2)c2cccnc21` [CBK283701], the viability at 28.5 h, 10 µM was 94.8%.
As for `O=C(c1cc2c(s1)CCC2)N1CCc2c(nc[nH]c2=O)C1` [CBK283703], the figure is 101%; as for `O=C(Cc1ccccc1F)NCCn1nc(-c2ccco2)ccc1=O` [CBK283705], 96.9%; as for `O=C(Cc1ccc(F)cc1)NCCn1nc(-c2ccco2)ccc1=O` [CBK283706], 86.4%.
Consider `O=C(Cc1cccc(F)c1)NCCn1nc(-c2ccco2)ccc1=O` [CBK283708], for which the viability at 28.5 h, 10 µM amounted to 86.3%.
As to `O=C(CN1Cc2ccccc2C1)N1CCCC1c1nc2ccccc2[nH]1` (centres unmarked) [CBK283710], the viability at 28.5 h, 10 µM stood at 87.9%.
Turning to `O=C(CCc1ccco1)N1CCCCC1c1nc2ccccc2[nH]1` (centres unmarked) [CBK283711], the viability at 28.5 h, 10 µM was found to be 99.9%.
Consider `CN(C)c1cccc(C(=O)N2CC[C@@H](c3ccccc3)[C@H](O)C2)c1` [CBK283713], for which the viability at 28.5 h, 10 µM amounted to 91.6%.
As for `Cc1ccc2c(c1)C(=O)CC1(CCN(C(=O)C3CCCC3)CC1)O2` [CBK283718], the figure is 85%; as for `COC(=O)[C@H]1CN(C(=O)c2cn(C)nc2C)C[C@@H]1c1ccc(F)cc1` [CBK283720], 96.6%.
Take `O=C(Cn1c2ccccc2c2ccccc21)N1CCn2cnnc2C1` [CBK283724]: the viability at 28.5 h, 10 µM came to 88.2%.
The same measure for `COC(=O)[C@@H]1CN(C(=O)c2cccs2)C[C@H]1c1ccc(OC)cc1` [CBK283725]: 87.1%; for `O=c1oc(-c2ccoc2)nn1Cc1ccccc1F` [CBK283726]: 98.5%; for `COC(=O)[C@H]1CN(C(=O)c2ccccn2)C[C@@H]1c1ccc(F)cc1` [CBK283727]: 101%.
On to `Cc1nn2c(O)c3c(nc2c1-c1cccs1)CCC3` [CBK283729], for which the viability at 28.5 h, 10 µM is 85.7%.
As for `COc1ccc(C2(NC(=O)c3cnn(C)c3C)CCCCC2)cc1` [CBK283731], the figure is 84.8%; as for `COC(=O)[C@H]1CN(C(=O)c2ccco2)C[C@@H]1c1ccc(F)cc1` [CBK283733], 85.8%.
On to `O=C(O)[C@H]1CN(C(=O)c2cccs2)C[C@@H]1c1ccc(F)cc1` [CBK283734], for which the viability at 28.5 h, 10 µM amounted to 98.1%.
For the compound `O=C(O)[C@H]1CN(C(=O)c2ccco2)C[C@@H]1c1ccc(F)cc1` [CBK283735], the viability at 28.5 h, 10 µM was 105%.
In the case of `CCn1c(C(CC(C)C)NC(=O)C2CC2)nc2cccnc21` (centres unmarked) [CBK283736], the viability at 28.5 h, 10 µM was found to be 103%.
The same measure for `O=C(c1ccc(=O)[nH]n1)N1C2CCC1CC(c1ccc(F)cc1)C2` (centres unmarked) [CBK283737]: 94.4%; for `Cc1noc(C)c1C(=O)N1C2CCC1CC(c1ccc(F)cc1)C2` (centres unmarked) [CBK283738]: 102%.
As for `Cc1nonc1CC(=O)N1C2CCC1CC(c1ccc(F)cc1)C2` (centres unmarked) [CBK283739], the figure is 89.1%.
On to `O=C(Cc1ccsc1)N1CCCC1c1nc2ccccc2[nH]1` (centres unmarked) [CBK283740], for which the viability at 28.5 h, 10 µM turned out to be 87.7%.
`Cc1oc(C2CC2)cc1C(=O)N1CCCC1c1nc2ccccc2[nH]1` (centres unmarked) [CBK283741]: the viability at 28.5 h, 10 µM turned out to be 88.1%.
The same measure for `O=C(NCCn1nc(-c2ccco2)ccc1=O)C1CCCCC1` [CBK283743]: 105%; for `CCn1c(/C=C/C2=CCN(C)CC2)nc2ccccc21` [CBK283745]: 91.8%; for `CN(C)C(=O)Cn1nc(C(c2ccccc2)c2ccccc2)oc1=O` [CBK283747]: 92.6%.
As to `CCc1nn(CC(=O)N2CCCC2)c(=O)c2cc3occc3n12` [CBK283748], the viability at 28.5 h, 10 µM is 93.3%.

For the origin of these results see PMC12040169 (PLOS Biology, 2025).
